# Laboratory results reported in patent US7943376B2, “Platelet derived growth factor (PDGF)-derived neurospheres define a novel class of progenitor cells” (Stem Cell Therapuetics Inc., priority 2001, dated 2011).
# Several values for one entry are separate records, joined by “and”; a condition that tells them apart may be missing. Equal entries are not always repeated. Entries after “also recorded” stand apart in the source; their conditions may differ.
# What was measured:
# [1] = system: brain tissue prepared as described in Example 1 (E14 striatum); experiment: Combined effect of PDGF and EGF on number of neurospheres formed; assay type: cell-based, mouse; details: cultured in PDGF, EGF, or the combination of PDGF and EGF
# Method: (§1) E14 striatum was mechanically dissociated as previously described (for example see U.S. Pat. Nos. 5,750,376; 5,980,885; or 5,851,832) and plated at 10,000 cells/ml in 6 well plates in defined culture media plus 100 ng/ml of PDGF-AA (Peprotech). The composition of defined culture media is as follows: • DMEM/F12 (1:1) • glucose (0.6%) • glutamine (2 mM) • sodium bicarbonate (3 mM) • HEPES (5 mM) • insulin (25 μg/ml) • transferrin (100 μg/ml) • progesterone (20 nM) • putrescine (60 μM) • selenium chloride (30 nM)
# We also tested the effect of combining PDGF and EGF on the number of neurospheres formed. Thus, brain tissue was prepared as described in Example 1 and cultured in the presence of PDGF, EGF, or the combination of PDGF and EGF.
# primary EGF neurospheres = experiment: Secondary neurosphere formation from dissociated EGF-derived primary neurospheres; assay type: cell-based, mouse; details: single primary EGF-generated neurospheres dissociated in EGF- or PDGF-containing media; eight wells per condition; Exp. #1 and #2
# Method: To determine if the neurospheres derived in EGF-containing media have different proliferation properties as those of PDGF-generated neurospheres, primary EGF neurospheres were generated from embryonic day 14 striatum by culturing dissociated striatum in EGF (20 ng/ml) containing define culture media at a cell density of 200,000 cells/ml. Subsequently, individual neurospheres were isolated, placed in individual wells in either PDGF or EGF containing media, and dissociated mechanically. The numbers of secondary neurospheres that came from a single primary EGF-generated neurospheres are given below (eight wells for each condition; numbers indicate average number of secondary neurospheres/well): […]
# [2] = system: medial ganglionic eminence (MGE); experiment: Neurosphere formation using medial ganglionic eminence; assay type: cell-based, mice; details: MGE from E14 embryos, cultured as in Example 1 with EGF or PDGF; n = 2 or 3
# Text: (§2) In order to locate the cells that give rise to the novel progenitor cells described herein, we dissected ganglionic eminence to two portions. Thus, the ganglionic eminence was isolated from E14 embryos of mice, and the medial ganglionic eminence (MGE) was separated from the lateral ganglionic eminence (LGE). MGE and LGE were then dissociated and cultured as described in Example 1. The resulting primary culture was exposed to EGF or PDGF in addition to the defined culture media, and the number of neurospheres were counted and summarized below.
# [3] = system: lateral ganglionic eminence (LGE); experiment: Neurosphere formation using lateral ganglionic eminence; assay type: cell-based, mice; details: LGE from E14 embryos, cultured as in Example 1 with EGF or PDGF; n = 2 or 3
# Text: as §2
# [4] = system: PDGF primary neurospheres; experiment: Secondary neurosphere formation from dissociated PDGF-derived primary neurospheres; assay type: cell-based, mouse; details: single PDGF primary neurospheres dissociated in 20 ng/ml EGF or 100 ng/ml PDGF-AA; 7 or more days in vitro
# Method: Single PDGF primary neurospheres prepared as described in Example 1 were transferred into 96-well plates and mechanically dissociated in either the presence of 20 ng/ml EGF (Peprotech) or 100 ng/ml PDGF-AA. The formation of secondary neurospheres was assayed after 7 or more days in culture in vitro.
# E14 striatum = experiment: PDGF-induced production of primary neurospheres from dissociated E14 striatum; assay type: cell-based, mouse
# Method: as §1
# Neurospheres, which are clusters of neural cells derived from single cells, formed after 7 days of culture in vitro (DIV). Six wells per experiment were counted for neurosphere production and the results are shown below:
# In control experiments, wherein PDGF was omitted from the culture media, no neurospheres formed. Therefore, PDGF is capable of inducing neurosphere production from single precursor cells in the absence of serum, EGF, TGF-α and FGF-2.
# EGF-derived neurospheres = experiment: Effect of Tyrphostin AG 1296 on primary neurosphere formation in response to EGF; assay type: cell-based, mouse
# Method: (§3) In order to determine if the PDGF-induced primary neurosphere formation is mediated by the PDGF receptor kinase, a selective PDGF receptor kinase inhibitor, Tyrphostin AG 1296, was added to neurosphere culture. Primary cells were cultured at 10,000 cells/ml in the presence of either EGF or PDGF, plus 5 μM of Tyrphostin AG 1296 (Sigma) or DMSO in the same volume as Tyrphostin (DMSO being the solvent for Tyrphostin). Results are expressed below as the percentage of neurospheres formed, with the number of PDGF- or EGF-derived neurospheres arbitrarily set at 100%, respectively.
# [5] = system: PDGF-derived neurospheres; experiment: Effect of Tyrphostin AG 1296 on primary neurosphere formation in response to PDGF; assay type: cell-based, mouse
# Method: as §3
Substance,Average number of neurospheres [1],average number of secondary neurospheres/well (primary EGF neurospheres),Average number of neurospheres [2],Average number of neurospheres [3],Average # of secondary neurospheres formed/well [4],"Average number of neurospheres produced/well, average of experiments 1-6 (E14 striatum; 100 ng/ml PDGF-AA, 10,000 cells/ml, 7 DIV, mean over six experiments)","Average number of neurospheres produced/well (E14 striatum; 100 ng/ml PDGF-AA, 10,000 cells/ml, defined media, 7 DIV, single experiments, six wells each)","Average number of neurospheres produced/well (E14 striatum; as E1, experiments marked *: PDGF used immediately after reconstitution in defined culture media)",Potency when used immediately after reconstitution in defined culture media (E14 striatum; relative to PDGF not used immediately after reconstitution),Effect on EGF-derived neurosphere formation (in words) (EGF-derived neurospheres; 5 μM Tyrphostin AG 1296),"percentage of neurospheres formed (EGF-derived neurospheres; EGF plus 5 μM Tyrphostin AG 1296, 10,000 cells/ml, EGF alone set at 100%, n = 3 to 9)",Effect on primary neurosphere formation induced by PDGF (in words) ([5]; 5 μM Tyrphostin AG 1296),"percentage of neurospheres formed ([5]; PDGF plus 5 μM Tyrphostin AG 1296, 10,000 cells/ml, PDGF alone set at 100%, n = 3 to 9)"
"EGF: epidermal growth factor (Peprotech), used at 20 ng/ml",80.5 ± 8.57,27 and 14.1,16.9 ± 2.87,9.64 ± 1.59,3.12 ± 1.64 (n = 3),–,–,–,–,–,–,–,–
PDGF: platelet derived growth factor; PDGF-AA (Peprotech) used at 100 ng/ml,73.36 ± 7.13,21.5 and 26.7,10.22 ± 1.11,1.27 ± 0.45,0,average = 17.7 ± 5.0,14.5 and 9.2 and 8.6 and 7.7,34.3* and 32.5*,*PDGF appears to be approximately 3 fold more potent when used immediately after reconstitution in defined culture media.,–,–,–,–
Tyrphostin AG 1296,–,–,–,–,–,–,–,–,–,inhibited by Tyrphostin AG 1296 to some extent,55%,inhibited; also recorded: almost abolished,10%
